Legend:
HL60 = assay: MTT assay, antiproliferative activity against HL60 cells; type: cell-based; conditions: Homo sapiens, HL-60, 72 h, mean of at least two determinations
From the text: (§1) All synthesized target compounds were firstly tested for their antiproliferative activity against five human cancer cell lines, PC3, A549, HCT116, HL60, and KB, using MTT assay.
(§2) Human prostate cancer PC3 cells, lung adenocarcinoma epithelial A549 cells, colon cancer HCT116 cells, promyelocytic leukemia HL60 cells and nasopharyngeal carcinoma KB cells were obtained from the cell bank of the Institute of Biochemistry and Cell Biology, Chinese Academy of Sciences (Shanghai, China). The inhibitory activity of target compounds against tested cancer cell lines was measured using the MTT assay. PC3, A549, HCT116, HL60, and KB cancer cell lines were cultured in RPMI-1640 medium (Invitrogen, Carlsbad, CA, USA) with heat-inactivated 10% fetal bovine serum, penicillin (100 units/mL) and streptomycin (100 µg/mL) and incubated in an atmosphere with 20% oxygen and 5% carbon dioxide at 37°C. All tested compounds were dissolved in DMSO at concentrations of 10.0 mg/mL and diluted to appropriate concentrations. Cells were plated in 96-well plates for 24 h and subsequently treated with different concentrations of all tested compounds for 72 h. Viable cells were determined using 3-(4,5-dimethylthiazol-2-yl)-2,5-diphenyltetrazolium bromide assay kit (MTT, Sigma) according to operation instructions provided by the manufacturer. The concentration of drug causing 50% inhibition in absorbance compared with control cells (IC50) was calculated using the software of dose-effect analysis with microcomputers.

recombinant human PI3Kα = biological target: T1, recombinant human PI3Kα (Homo sapiens, UniProt P42336); assay: Competitive fluorescence polarization (FP) assay, inhibition of PI3Kα; type: biochemical; conditions: for Binding efficiency index (BEI): BEI = pIC50 (M)/MW (kDa), PI3Kα
T1 construct: purchased Echelon Biosciences (Salt Lake City, UT, USA) E-2000
T1 sequence (P42336 whole entry): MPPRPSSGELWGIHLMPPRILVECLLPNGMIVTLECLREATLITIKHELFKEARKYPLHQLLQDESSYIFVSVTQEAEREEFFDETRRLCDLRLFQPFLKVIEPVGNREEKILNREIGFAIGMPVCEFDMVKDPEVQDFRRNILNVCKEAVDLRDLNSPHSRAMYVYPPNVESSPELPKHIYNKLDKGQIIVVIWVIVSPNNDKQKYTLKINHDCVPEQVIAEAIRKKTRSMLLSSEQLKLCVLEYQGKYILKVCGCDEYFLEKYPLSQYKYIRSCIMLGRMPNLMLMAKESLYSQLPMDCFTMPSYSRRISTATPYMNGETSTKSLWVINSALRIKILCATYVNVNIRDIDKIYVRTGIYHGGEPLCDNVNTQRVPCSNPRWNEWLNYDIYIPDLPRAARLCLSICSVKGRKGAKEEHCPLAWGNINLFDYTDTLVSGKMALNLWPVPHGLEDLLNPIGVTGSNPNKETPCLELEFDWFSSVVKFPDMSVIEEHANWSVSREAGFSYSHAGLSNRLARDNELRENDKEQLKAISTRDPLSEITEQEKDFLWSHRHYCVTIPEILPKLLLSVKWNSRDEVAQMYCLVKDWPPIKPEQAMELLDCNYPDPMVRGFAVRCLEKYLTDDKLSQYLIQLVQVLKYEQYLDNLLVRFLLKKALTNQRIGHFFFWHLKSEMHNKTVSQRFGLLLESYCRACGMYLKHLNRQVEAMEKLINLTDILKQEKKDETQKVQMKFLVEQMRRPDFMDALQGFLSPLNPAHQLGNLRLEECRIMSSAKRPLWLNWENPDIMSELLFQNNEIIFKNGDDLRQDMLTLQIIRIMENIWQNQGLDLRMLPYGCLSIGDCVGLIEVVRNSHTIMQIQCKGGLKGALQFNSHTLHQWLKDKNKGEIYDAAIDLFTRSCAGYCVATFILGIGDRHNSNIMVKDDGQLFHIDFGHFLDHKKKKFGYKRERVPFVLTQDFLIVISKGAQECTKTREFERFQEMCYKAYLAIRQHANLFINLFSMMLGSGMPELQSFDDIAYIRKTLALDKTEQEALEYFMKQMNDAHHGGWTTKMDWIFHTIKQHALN
T1 sequence (P27986 whole entry partner): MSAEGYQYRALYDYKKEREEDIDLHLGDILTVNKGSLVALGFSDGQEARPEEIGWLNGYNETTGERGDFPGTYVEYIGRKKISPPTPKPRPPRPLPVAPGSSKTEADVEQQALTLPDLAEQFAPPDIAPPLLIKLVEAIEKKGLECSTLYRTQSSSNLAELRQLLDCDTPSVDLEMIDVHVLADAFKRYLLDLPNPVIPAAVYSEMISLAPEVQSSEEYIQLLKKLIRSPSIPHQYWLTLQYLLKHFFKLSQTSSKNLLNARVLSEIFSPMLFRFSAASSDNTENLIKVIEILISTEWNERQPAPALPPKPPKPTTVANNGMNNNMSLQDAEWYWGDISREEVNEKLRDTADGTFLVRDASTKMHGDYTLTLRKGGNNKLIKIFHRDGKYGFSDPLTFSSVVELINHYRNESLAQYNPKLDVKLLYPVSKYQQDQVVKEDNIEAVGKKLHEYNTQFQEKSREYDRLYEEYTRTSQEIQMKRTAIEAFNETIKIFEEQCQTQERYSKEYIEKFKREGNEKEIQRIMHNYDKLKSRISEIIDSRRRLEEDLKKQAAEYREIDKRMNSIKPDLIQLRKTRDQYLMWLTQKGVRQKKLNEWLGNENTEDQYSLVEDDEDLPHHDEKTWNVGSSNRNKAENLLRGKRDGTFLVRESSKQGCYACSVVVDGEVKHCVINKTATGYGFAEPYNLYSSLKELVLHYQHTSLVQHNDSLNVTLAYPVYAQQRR
Experimental: Selected compounds were then tested for their enzymatic inhibitory activity against PI3Kα using a competitive fluorescence polarization (FP) assay to determine the molecular target of synthesized compounds [21].
The PI3Kα inhibitory test was determined using a competitive fluorescence polarization kinase activity assay. PI3K fluorescence polarization assay kit (catalog No. K-1100) and recombinant human PI3Kα (catalog No. E-2000) were purchased from Echelon Biosciences (Salt Lake City, UT, USA). PI3K reactions were performed in 5 mM HEPES, Ph 7, 2.5 mM MgCl2, 10 mM DTT and 50 µM ATP, using diC8-phosphatidylinositol-4, 5-bisphosphate (PIP2) as the substrate, and the final reaction volumes were 10 µL. For evaluation of the PI3Kα inhibitory activity of target compounds, 50 ng enzyme and 10 µM substate were used per 10 µL reaction volume with the concentrations of inhibitors ranging from 3.2 nM to 10 µM. After incubating for 3 h at room temperature, reactions were quenched by adding chelators. A mixture of phosphoinositide binding protein was added and mixed, followed by the addition of a fluorophore-labeled phosphoinositide tracer. Samples were then mixed in 384-well black Corning nonbinding plates (Corning, NY, USA) and incubated in a dark environment for 1 h to equilibrate. Finally, polarization values were measure using red fluorophores with appropriate filters to determine the extent of enzyme activity in the reaction.

KB = assay: MTT assay, antiproliferative activity against KB cells; type: cell-based; conditions: Homo sapiens, 72 h, mean of at least two determinations
From the text: as §1, §2

HCT116 = assay: MTT assay, antiproliferative activity against HCT116 cells; type: cell-based; conditions: Homo sapiens, HCT-116, 72 h, mean of at least two determinations
From the text: as §1, §2

PC3 = assay: MTT assay, antiproliferative activity against PC3 cells; type: cell-based; conditions: Homo sapiens, PC-3, 72 h, mean of at least two determinations
From the text: as §1, §2

A549 = assay: MTT assay, antiproliferative activity against A549 cells; type: cell-based; conditions: Homo sapiens, 72 h, mean of at least two determinations
From the text: as §1, §2

PC3 cells [1] = assay: Apoptosis assay in PC3 cells by flow cytometry (PI); type: cell-based, human; conditions: 24 h, control 1.71%
Experimental: Piperazinylquinoxaline derivative 41 was further tested for its ability to induce apoptosis in PC3 cells. […] (Fig. 5). With an apoptotic percent of 1.71% of the control, the percent of apoptotic PC3 cells induced by compound 41 and GDC0941 in 5 µM after treatment of 24 h were 4.48% and 3.12%, respectively.
Figure 5 Apoptosis induction of compound 41 and GDC0941 in PC3 cells. After treatment with 41 and GDC0941 (5 or 10 µM) for 24 h, PC3 cells were harvested and detected of apoptosis by flow cytometry using PI apoptosis detection kit. Vertical axes stand for the counts of relative number of PC3 cells; horizontal axes stand for the relative fluorescence light intensity measured as pulse-area (FL2-A). TEXT PRINTED IN THE PICTURE: Compound 41: Apo:4.48% (5μM); Apo:32.83% (10μM) | GDC0941: Apo:3.12% (5μM); Apo:5.65% (10μM)
(§3) For flow cytometry analysis, PC3 cells were treated with DMSO, compound 41 and GDC0941 for 24 h. Cells were washed twice with PBS and fixed in 75% ethanol at −20°C. The cell pellet was resuspended in 100 µL of PBS containing […] RNase (Amerson, Solon, OH, USA), then incubated at 37°C for 0.5 h. After incubation, the cells were stained with 20 mL/L propidium iodide (PI, Sigma, St. Louis, MO, USA) at 4°C for 15 min. The fluorescence of cell was measured with FACSCalibur flow cytometer (Becton-Dickinson, Lincoln Park, NJ, USA).

PC3 cells [2] = assay: Cell cycle arrest in PC3 cells by flow cytometry; type: cell-based, human; conditions: 24 h; for cell cycle arrest: 2 and 4 µM
Experimental: Moreover, flow cytometric analysis was performed to determine whether target compounds could induce cell cycle arrest in PC3 cells. GDC0941 was used as the positive control. PC3 cells were treated with compound 41 and GDC0941 in two different concentrations (2 and 4 µM) for 24 h, the results are presented as Figure 6.
Figure 6 Cell cycle arrest test of compound 41 and GDC0941 in PC3 cells. Vertical axes stand for the counts of relative number of PC3 cells; horizontal axes stand for the relative fluorescence light intensity measured as pulse-area (FL2-A). TEXT PRINTED IN THE PICTURE: Compound 41: G1: 53.77 % (2μM); G2: 16.76 % (2μM); S: 29.48 % (2μM); G1: 54.38 % (4μM); G2: 15.87 % (4μM); S: 29.75 % (4μM) | GDC0941: G1: 63.66 % (2μM); G2: 21.86 % (2μM); S: 14.48 % (2μM); G1: 71.43 % (4μM); G2: 19.92 % (4μM); S: 8.65 % (4μM)
as §3

[3] = FP assay, 50 µM ATP, mean of at least two determinations

Structure (SMILES)	IC50 (HL60)	melting point	Binding efficiency index (BEI) (recombinant human PI3Kα)	IC50 (recombinant human PI3Kα; [3])	IC50 (recombinant human PI3Kα; as used for BEI, Table 5)	IC50 (KB)	IC50 (HCT116)	IC50 (PC3)	IC50 (A549)	percent of apoptotic PC3 cells (PC3 cells [1]; 5 µM)	percent of apoptotic PC3 cells (PC3 cells [1]; 10 µM)	percent of cells in G1 (PC3 cells [2]; 2 µM)	percent of cells in G2 (PC3 cells [2]; 2 µM)	percent of cells in S (PC3 cells [2]; 2 µM)	percent of cells in G1 (PC3 cells [2]; 4 µM)	percent of cells in G2 (PC3 cells [2]; 4 µM)	percent of cells in S (PC3 cells [2]; 4 µM)	cell cycle arrest (PC3 cells [2])
Cc1ccc(S(=O)(=O)c2nc3ccccc3nc2N2CCNC(C)C2)cc1 (stereo not shown) [Compound 25, 2-(3-Methylpiperazin-1-yl)-3-(4-methylphenylsulfonyl)quinoxaline]	0.09 µM	136 to 138 °C	16.2	0.65 µM		9.18 µM	1.17 µM	2.03 µM	1.6 µM									
CS(=O)(=O)N1CCN(Cc2cc3nc(-c4cccc5[nH]ncc45)nc(N4CCOCC4)c3s2)CC1 [GDC0941, 2-(1H-Indazol-4-yl)-6-(4-methanesulfonyl-piperazin-1-ylmethyl)-4-morpholin-4-yl-thieno[3,2-d]pyrimidine, reference compound]										3.12%	5.65%	63.66%	21.86%	14.48%	71.43%	19.92%	8.65%	induced cell cycle arrest in G1 phase
CN1CCN(c2nc3ccccc3nc2S(=O)(=O)c2ccc(Br)cc2)CC1 [Compound 17, 2-(4-Methylpiperazin-1-yl)-3-(4-bromophenylsulfonyl)quinoxaline]	0.28 µM	141 to 142 °C	12.0	4.25 µM		0.87 µM	2.31 µM	1.01 µM	5.18 µM									
O=C(c1ccc(Cl)cc1)N1CCN(c2nc3ccccc3nc2S(=O)(=O)c2ccccc2)CC1 [Compound 34, 2-(4-(4-Chlorobenzoyl)piperazin-1-yl)-3-(phenylsulfonyl)quinoxaline]	5.84 µM	217 to 219 °C	11.3	2.75 µM		0.93 µM	25.4 µM	2.74 µM	3.86 µM									
NC(=O)C1CCN(c2nc3ccccc3nc2S(=O)(=O)c2ccccc2)CC1 [Compound 4, 2-(4-Carbamoylpiperidin-1-yl)-3-(phenylsulfonyl)Fquinoxaline]	0.22 µM	170 to 174 °C		> 10 µM		13.7 µM	1.57 µM	1.2 µM	26.7 µM									
CN1CCN(c2nc3ccccc3nc2S(=O)(=O)c2ccccc2)CC1 [Compound 14, 2-(4-Methylpiperazin-1-yl)-3-(phenylsulfonyl)quinoxaline]	0.77 µM	154 to 157 °C		> 10 µM		4.54 µM	2.78 µM	2.94 µM	14 µM									

The next lines start with results.

IC50 (HL60)	melting point	Binding efficiency index (BEI) (recombinant human PI3Kα)	IC50 (recombinant human PI3Kα; [3])	IC50 (recombinant human PI3Kα; as used for BEI, Table 5)	IC50 (KB)	IC50 (HCT116)	IC50 (PC3)	IC50 (A549)	Structure (SMILES)	percent of apoptotic PC3 cells (PC3 cells [1]; 5 µM)	percent of apoptotic PC3 cells (PC3 cells [1]; 10 µM)	percent of cells in G1 (PC3 cells [2]; 2 µM)	percent of cells in G2 (PC3 cells [2]; 2 µM)	percent of cells in S (PC3 cells [2]; 2 µM)	percent of cells in G1 (PC3 cells [2]; 4 µM)	percent of cells in G2 (PC3 cells [2]; 4 µM)	percent of cells in S (PC3 cells [2]; 4 µM)	cell cycle arrest (PC3 cells [2])
0.12 µM	158 to 160 °C	16.1	0.061 µM	0.061 µM	9.46 µM	0.32 µM	0.6 µM	0.57 µM	CC1CN(c2nc3ccccc3nc2S(=O)(=O)c2ccc(Br)cc2)CCN1 (stereo not shown) [Compound 27, 2-(3-Methylpiperazin-1-yl)-3-(4-bromophenylsulfonyl)quinoxaline]									
	177 to 179 °C	16.5	0.024 µM			0.55 µM	2.21 µM	1.32 µM	COc1ccc(S(=O)(=O)c2nc3ccccc3nc2N2CCN(S(C)(=O)=O)CC2)cc1 [Compound 41, 2-(4-(Methylsulfonyl)piperazin-1-yl)-3-(4-methoxyphenylfsulfonyl)quinoxaline]	4.48%	32.83%	53.77%	16.76%	29.48%	54.38%	15.87%	29.75%	showed similar trend while the percent of cell in G1 phase was smaller
0.1 µM	92 to 96 °C	17.0	0.04 µM		9.89 µM	0.19 µM	0.36 µM	0.75 µM	O=S(=O)(c1ccc(Br)cc1)c1nc2ccccc2nc1N1CCNCC1 [Compound 22, 2-(Piperazin-1-yl)-3-(4-bromophenylsulfonyl)quinoxaline]									
